From ChEMBL document CHEMBL5338753, “Stapled Peptides as Direct Inhibitors of Nrf2-sMAF Transcription Factors” (J Med Chem, 2023)
Active and inactive are the calls of the source. No cut-off for these calls is given here. Positions of bridges follow the written chain, without caps; N, C: chain ends. Non-standard residues stand in square brackets, D forms with d. Residues, ends and D or L forms follow the SMILES beside them. ξ: configuration not given here. *: point of attachment. Biotin = O=C1N[C@H]2[C@H](CS[C@H]2CCCCC(=O)*)N1; R5 = C=CCCC[C@@](C)(N)C(=O)O; ξIle = CC[C@H](C)C(N)C(=O)O; Ahx = NCCCCCC(=O)O

Columns and labels:
[1] = target: T1, Nuclear factor erythroid 2-related factor 2 (Homo sapiens) (UniProt Q16236); assay: Inhibition of human Nrf2 in HEK-293T cells expressing ARE-firefly luciferase and TK-Renilla luciferase at 0 to 100 uM incubated for 16 hrs by Dual-Luciferase reporter based luminometer analysis; type: cell-based; conditions: dose 0-100 µM
T1 sequence (whole entry): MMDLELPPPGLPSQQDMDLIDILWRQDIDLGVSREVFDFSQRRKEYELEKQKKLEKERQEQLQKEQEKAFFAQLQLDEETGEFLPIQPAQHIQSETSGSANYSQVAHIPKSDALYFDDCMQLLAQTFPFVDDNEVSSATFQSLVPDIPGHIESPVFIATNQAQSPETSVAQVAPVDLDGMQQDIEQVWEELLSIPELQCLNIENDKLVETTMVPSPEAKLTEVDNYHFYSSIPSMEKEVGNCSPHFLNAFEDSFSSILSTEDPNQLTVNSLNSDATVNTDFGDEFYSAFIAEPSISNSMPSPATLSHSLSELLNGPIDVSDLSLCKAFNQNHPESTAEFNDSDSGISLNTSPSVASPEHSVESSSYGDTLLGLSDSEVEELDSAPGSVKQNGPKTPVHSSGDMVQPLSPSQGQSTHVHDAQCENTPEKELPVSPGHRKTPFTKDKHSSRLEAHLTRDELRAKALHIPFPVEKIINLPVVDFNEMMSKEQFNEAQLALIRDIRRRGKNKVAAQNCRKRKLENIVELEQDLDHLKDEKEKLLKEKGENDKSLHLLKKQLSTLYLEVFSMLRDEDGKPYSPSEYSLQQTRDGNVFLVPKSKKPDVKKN

[2] = Stability of compound assessed as proteinase K (unknown origin) mediated compound degradation at 55 uM measured upto 24 hrs by LC/MS analysis; type: ADME; conditions: human
[3] = target: T1, Nuclear factor erythroid 2-related factor 2 (Homo sapiens); assay: Inhibition of human Nrf2 in HEK-293T cells expressing NQO1-ARE-firefly luciferase and TK-Renilla luciferase at 50 uM incubated for 16 hrs by Dual-Luciferase reporter based luminometer analysis; type: cell-based
[4] = Stability of compound assessed as proteinase K (unknown origin) mediated compound degradation at 55 uM measured after 40 mins by LC/MS analysis; type: ADME; conditions: human
[5] = target: T2, Transcription factor MafG (Homo sapiens, UniProt O15525); assay: Binding affinity to human His-tagged MafG expressed in Escherichia coli Rosetta (DE3) by immunoprecipitation assay
T2 sequence (O15525 whole entry): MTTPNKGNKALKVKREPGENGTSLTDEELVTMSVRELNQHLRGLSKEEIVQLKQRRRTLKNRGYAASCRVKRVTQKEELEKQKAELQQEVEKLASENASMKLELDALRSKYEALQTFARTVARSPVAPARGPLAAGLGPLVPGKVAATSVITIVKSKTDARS

[6] = target: T2, Transcription factor MafG; assay: Binding affinity to human His-tagged MafG at 1 uM incubated for 10 mins with 188 to 3000 nM protein by SPR analysis
[7] = target: T2, Transcription factor MafG; assay: Binding affinity to human His-tagged MafG assessed as dissociation constant incubated for 10 mins by SPR analysis
[8] = target: Albumin (Bos taurus, UniProt P02769); assay: Binding affinity to bovine serum albumin at 1 uM by SPR analysis; conditions: cattle
Chain of Albumin (P02769 whole entry): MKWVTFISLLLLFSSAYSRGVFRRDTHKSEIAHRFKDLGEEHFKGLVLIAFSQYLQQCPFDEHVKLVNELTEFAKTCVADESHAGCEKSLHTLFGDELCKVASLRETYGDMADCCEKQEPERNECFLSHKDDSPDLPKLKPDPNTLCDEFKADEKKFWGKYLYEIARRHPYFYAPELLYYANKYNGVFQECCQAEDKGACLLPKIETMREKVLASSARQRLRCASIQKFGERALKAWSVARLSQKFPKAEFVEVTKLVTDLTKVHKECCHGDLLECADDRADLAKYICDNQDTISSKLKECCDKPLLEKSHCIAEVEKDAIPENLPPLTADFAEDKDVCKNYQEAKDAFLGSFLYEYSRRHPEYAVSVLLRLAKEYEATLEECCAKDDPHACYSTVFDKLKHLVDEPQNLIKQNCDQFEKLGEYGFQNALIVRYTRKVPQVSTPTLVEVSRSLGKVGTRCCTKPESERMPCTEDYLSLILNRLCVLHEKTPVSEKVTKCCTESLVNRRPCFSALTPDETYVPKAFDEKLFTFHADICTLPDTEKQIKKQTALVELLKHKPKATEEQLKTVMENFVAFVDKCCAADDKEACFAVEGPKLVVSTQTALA

[9] = target: T2, Transcription factor MafG; assay: Binding affinity to human His-tagged MafG expressed in Escherichia coli Rosetta (DE3) incubated in presence of unlabeled peptide by immunoprecipitation assay

| inhibition [3] | Activity [5] | Molecule | other results |
| --- | --- | --- | --- |
|  |  | CC(=O)N[C@@H](C)C(=O)N[C@H](C(=O)N[C@@H](CCC(=O)O)C(=O)N[C@@H](C)C(=O)N[C@@H](CCC(=O)O)C(=O)N[C@]1(C)CCC/C=C\CCC[C@](C)(C(=O)N[C@@H](C)C(=O)N[C@@H](CCCCN)C(=O)N[C@@H](CC(=O)O)C(=O)N[C@@H](CCC(=O)O)C(=O)N[C@@H](C)C(=O)N[C@@H](CCC(=O)O)C(N)=O)NC(=O)[C@H](CC(=O)O)NC(=O)[C@H](C)NC(=O)[C@H](CC(=O)O)NC1=O)C(C)C (Ac-AVEAE[R5]DAD[R5]AKDEAE-NH2; staple (Z) 6-10) | inhibition [1]: inactive |
| inactive |  | CC(=O)N[C@@H](CC(=O)O)C(=O)N[C@@H](CCC(=O)O)C(=O)N[C@@H](CCCCN)C(=O)N[C@@H](CCC(=O)O)C(=O)N[C@@H](CCCCN)C(=O)N[C@@H](CC(C)C)C(=O)N[C@]1(C)CCC/C=C\CCC[C@](C)(C(=O)N[C@@H](CCC(=O)O)C(=O)N[C@@H](CC(N)=O)C(=O)N[C@@H](CC(=O)O)C(=O)N[C@@H](CCCCN)C(=O)N[C@@H](CO)C(N)=O)NC(=O)[C@H](CCCCN)NC(=O)[C@H](CCC(=O)O)NC(=O)[C@H](CCCCN)NC1=O (Ac-DEKEKL[R5]KEK[R5]ENDKS-NH2; staple (Z) 7-11) | Stability [2]: Stable |
| inactive |  | CC(=O)N[C@@H](CC(=O)O)C(=O)N[C@@H](CC(C)C)C(=O)N[C@@H](CC(=O)O)C(=O)N[C@@H](Cc1c[nH]cn1)C(=O)N[C@@H](CC(C)C)C(=O)N[C@]1(C)CCC/C=C\CCC[C@](C)(C(=O)N[C@@H](CCCCN)C(=O)N[C@@H](CC(C)C)C(=O)N[C@@H](CC(C)C)C(=O)N[C@@H](CCCCN)C(=O)N[C@@H](CCC(=O)O)C(=O)N[C@@H](CCCCN)C(N)=O)NC(=O)[C@H](CCCCN)NC(=O)[C@H](CCC(=O)O)NC(=O)[C@H](CC(=O)O)NC1=O (Ac-DLDHL[R5]DEK[R5]KLLKEK-NH2; staple (Z) 6-10) | Stability [4]: Unstable |
|  | inactive | CC(C)C[C@H](NC(=O)[C@H](CCCCN)NC(=O)[C@H](CCC(=O)O)NC(=O)[C@H](CCCCN)NC(=O)[C@H](CCC(=O)O)NC(=O)[C@H](CC(=O)O)NC(=O)CCCCCNC(=O)CCCC[C@@H]1SC[C@@H]2NC(=O)N[C@@H]21)C(=O)N[C@]1(C)CCC/C=C\CCC[C@](C)(C(=O)N[C@@H](CCC(=O)O)C(=O)N[C@@H](CC(N)=O)C(=O)N[C@@H](CC(=O)O)C(=O)N[C@@H](CCCCN)C(=O)N[C@@H](CO)C(N)=O)NC(=O)[C@H](CCCCN)NC(=O)[C@H](CCC(=O)O)NC(=O)[C@H](CCCCN)NC1=O ({Biotin-Ahx}-DEKEKL[R5]KEK[R5]ENDKS-NH2; staple (Z) 7-11) | Activity [6]: inactive |
|  | inactive | CC(C)C[C@H](NC(=O)[C@H](CC(=O)O)NC(=O)CCCCCNC(=O)CCCC[C@@H]1SC[C@@H]2NC(=O)N[C@@H]21)C(=O)N[C@@H](CC(=O)O)C(=O)N[C@@H](Cc1c[nH]cn1)C(=O)N[C@@H](CC(C)C)C(=O)N[C@]1(C)CCC/C=C\CCC[C@](C)(C(=O)N[C@@H](CCCCN)C(=O)N[C@@H](CC(C)C)C(=O)N[C@@H](CC(C)C)C(=O)N[C@@H](CCCCN)C(=O)N[C@@H](CCC(=O)O)C(=O)N[C@@H](CCCCN)C(N)=O)NC(=O)[C@H](CCCCN)NC(=O)[C@H](CCC(=O)O)NC(=O)[C@H](CC(=O)O)NC1=O ({Biotin-Ahx}-DLDHL[R5]DEK[R5]KLLKEK-NH2; staple (Z) 6-10) |  |
|  | Active | CC[C@H](C)C(NC(=O)CCCCCNC(=O)CCCC[C@@H]1SC[C@@H]2NC(=O)N[C@@H]21)C(=O)N[C@H](C(=O)N[C@@H](CCC(=O)O)C(=O)N[C@@H](CC(C)C)C(=O)N[C@@H](CCC(=O)O)C(=O)N[C@]1(C)CCC/C=C\CCC[C@](C)(C(=O)N[C@@H](CC(C)C)C(=O)N[C@@H](CCCCN)C(=O)N[C@@H](CC(=O)O)C(=O)N[C@@H](CCC(=O)O)C(=O)N[C@@H](CCCCN)C(=O)N[C@@H](CCC(=O)O)C(N)=O)NC(=O)[C@H](CC(=O)O)NC(=O)[C@H](CC(C)C)NC(=O)[C@H](CC(=O)O)NC1=O)C(C)C (stereo partly specified) ({Biotin-Ahx}-[ξIle]VELE[R5]DLD[R5]LKDEKE-NH2; staple (Z) 6-10) | Kd [7]: 337 nM; Activity [8]: Not Active; Activity [9]: Active |
| inactive |  | Ac-DEKEKLLKEKGENDKS-NH2 |  |
| inactive |  | Ac-DLDHLKDEKEKLLKEK-NH2 |  |
| inactive |  | Ac-IVELEQDLDHLKDEKE-NH2 | Stability [2]: Unstable |
